Where two headings read alike, the source gives them in different places.
How the values were obtained:
16S A-site RNA = settings: previously reported / solution value for 16S A site; read-out: literature Kd; cited from earlier work
[1] = biological target: 27-mer model RNA sequence of the 16S A-site; experiment: MASS mass spectrometry binding assay with 16S A-site 27-mer RNA; set-up: species or system prokaryotic
Protocol: The compounds are screened for binding affinity using MASS or conventional high-throughput functional screens. The best scoring compounds from docking a 256-member library against the 16S A-site ribosomal RNA structure are shown in the table 5 below. The MASS assay was performed with the 27-mer model RNA sequence of the 16S A-site whose NMR structure has been determined. The transcription/translation assay was based on expression of a luciferase plasmid.
A preferred first step of MASS screening involves mixing the RNA target (or targets) with a combinatorial library of ligands designed to bind to a specific site on the target molecule(s). Specific noncovalent complexes formed in solution between the target(s) and any library members are transferred into the gas phase and ionized by ESI. As described herein, from the measured mass difference between the complex and the free target, the identity of the binding ligand can be determined. The dissociation constant of the complex can be determined in two ways: if a ligand with a known binding affinity for the target is available, a relative Kd can be measured by using the known ligand as an internal control and measuring the abundance of the unknown complex to the abundance of the control, alternatively, if no internal control is available, Kd's can be determined by making a series of measurements at different ligand concentrations and deriving a Kd value from the “titration” curve.
In a direct determination of solution phase dissociation constants (Kd's) by mass spectrometry, ESI-MS measurements of a solution containing a fixed concentration of RNA at different concentrations of ligand were obtained. By measuring the ratio of bound:unbound RNA at varying ligand concentrations, the Kd was determined by 1/slope of the “titration curve”. The MS derived value of 110 nM is in good agreement with previously reported literature value of 200 nM.
All mass spectrometry experiments were performed using an Apex II 70e electrospray ionization Fourier transform ion cyclotron resonance mass spectrometer (Bruker Daltonics, Billerica) employing an actively shielded 7 tesla superconducting magnet. RNA solutions were prepared in 50 mM NH4OAc (pH 7), mixed 1:1 v:v with isopropanol to aid desolvation, and infused at a rate of […] using a syringe pump. Ions were formed in a modified electrospray source (Analytica, Branford) employing an off axis, grounded electrospray probe positioned ca. 1.5 cm from the metalized terminus of the glass desolvation capillary biased at 5000 V. A counter-current flow of dry […] gas heated to 225C was employed to assist in the desolvation process. Ions were accumulated in an external ion reservoir comprised of an RF-only hexapole, a skimmer cone, and an auxiliary electrode for 1000 ms prior to transfer into the trapped ion cell for mass analysis. Each spectrum was the result of the coaddition of 16 transients comprised of […] acquired over a 90,909 kHz bandwidth resulting in a 700 ms detection interval. All aspects of pulse sequence control, data acquisition, and post acquisition processing were performed using a Bruker Daltonics datastation running XMASS version 4.0 on a Silicon Graphics (San Jose, Calif.) R5000 computer.
Mass spectrometry experiments were performed in order to detect complex formation between a library containing five aminoglycosides (Sisomicin (Sis), Tobramycin (Tob), Bekanomycin (Bek), Paromomycin (PM), and Livodomycin (LV)) and two RNA targets simultaneously. Signals from the (M-5H+)^5− charge states of free 16S and 18S RNAs are detected at m/z 1801.515 and 1868.338, respectively. The mass spectrometric assay reproduces the known solution binding properties of aminoglycosides to the 16S A site model and an 18S A site model with a neutral mass linker. Consistent with the higher binding affinity of theses aminoglycosides for the 16S A-site relative to the 18S A-site, aminoglycoside complexes are observed only with the 16S rRNA target. […]

## NC[C@@H]1O[C@H](O[C@H]2[C@@H](O)[C@H](O[C@@H]3[C@@H](O)[C@H](N)C[C@H](N)[C@H]3O[C@H]3O[C@H](CO)[C@@H](O)[C@H](O)[C@H]3N)O[C@@H]2CO)[C@H](N)[C@@H](O)[C@@H]1O [Paromomycin]
16S A-site RNA
  Kd: 200 nM
[1]; 16S A site 27mer, ESI-MS titration, read-out: KD measured by mass spectrometry
  Kd: 110 nM
[1]; 27-mer model RNA of the 16S A-site, unit printed only in the Paromomycin cell and b169, read-out: MASS KD
  Kd: 500 nM
[1]; ESI-FTICR, mixture of five aminoglycosides, 16S and 18S targets simultaneously
  complexes detected with the 16S A site 27mer RNA: High affinity complexes
